Test results reported in BindingDB's records for patent WO2025054369 (NICO Therapeutics, 2025).

Each compound was assayed against T1, NAD(+) hydrolase SARM1 (Homo sapiens, UniProt Q6SZW1) (assay: Biochemical Assay of the Compounds).
T1 sequence (Q6SZW1 whole entry): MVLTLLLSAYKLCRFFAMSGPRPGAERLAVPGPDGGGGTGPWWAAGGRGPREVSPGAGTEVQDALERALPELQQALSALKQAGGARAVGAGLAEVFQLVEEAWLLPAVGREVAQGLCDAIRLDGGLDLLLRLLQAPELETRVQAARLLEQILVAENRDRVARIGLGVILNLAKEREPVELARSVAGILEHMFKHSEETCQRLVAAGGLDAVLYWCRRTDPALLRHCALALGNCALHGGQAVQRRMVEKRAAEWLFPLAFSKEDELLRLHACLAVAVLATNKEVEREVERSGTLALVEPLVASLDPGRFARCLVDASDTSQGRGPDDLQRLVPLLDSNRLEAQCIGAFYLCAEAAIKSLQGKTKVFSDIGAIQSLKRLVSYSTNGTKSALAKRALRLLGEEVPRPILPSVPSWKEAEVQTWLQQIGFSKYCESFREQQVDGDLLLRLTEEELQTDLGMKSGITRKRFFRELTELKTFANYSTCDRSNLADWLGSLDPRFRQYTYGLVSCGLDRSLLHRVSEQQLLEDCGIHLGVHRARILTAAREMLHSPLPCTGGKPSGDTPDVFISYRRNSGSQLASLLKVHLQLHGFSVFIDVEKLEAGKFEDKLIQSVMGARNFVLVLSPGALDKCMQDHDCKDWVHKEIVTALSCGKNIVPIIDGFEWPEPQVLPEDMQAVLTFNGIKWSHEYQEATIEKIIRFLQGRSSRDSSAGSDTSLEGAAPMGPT
Procedure: Preparation of full-length SARM1 (FL-SARM1) lysate: HEK293T cells (ATCC: CRL-3216) were grown on 150 mm TC-treated dishes to 80-90% confluency in complete DMEM (DMEM (Thermo Fisher: 11965175) supplemented with 10% HI-FBS (VWR: 10802-772), 1x Pen/Strep (Thermo Fisher: 15140122), 1x NEAA (Thermo Fisher: 1140050), 1x glutamax (Thermo Fisher: 35050061), and 1 mM sodium pyruvate (Thermo Fisher: 11360070)) at 37 °C and 5% CO2. One hour prior to transfection, the media was replaced with fresh, 37 °C complete DMEM (20 mL per one 150 mm dish) supplemented with additional 10mM glucose (Alfa Aesar AAJ60067EQE). Per one 150 mm dish, 30 µg FL-SARM1 (SEQ. ID.1; cloned in-house) plasmid was dissolved in 1 mL DMEM at ambient temperature and were mixed by inverting the tube 8-10 times.90 µL of GenJet™ in vitro DNA transfection reagent (Ver2) was dissolved in 1 mL DMEM at ambient temperature and were mixed by inverting the tube 8-10 times. The plasmid and transfection agent solutions were combined, mixed by 8-10 inversions and incubated for 10 minutes at ambient temperature.2 mL of this transfection mixture was added to each dish containing HEK293T cells as prepared above followed by a gentle mixing of 4-5 horizontal rotations. The dishes were incubated at 37 °C and 5% CO2 for 24 h. The dishes were removed from the incubator, the medium was aspirated and the cells were scraped off using cell scrapers in ice-cold 1x PBS (5 mL/dish, Thermo Fisher Scientific 10010023). The collected cells were centrifuged at 300 g for 5 minutes at 4 °C. The supernatant was aspirated and the pellet was frozen at -80 °C until needed. The cell pellet from 30 dishes was dissolved in 30 mL 1x PBS supplemented with 4 tablets of Complete, Mini EDTA-free protease inhibitor cocktail at 4 °C. This mixture was sonicated on ice for 10 minutes at 50% amplitude with a 1 second on/1 second off interval using a Model 120 sonicator (Thermo Fisher Scientific, FB120110). The lysate was centrifuged at 16000 g for 10 minutes at 4 °C.

| SMILES | IC50 [nM] |
| --- | --- |
| CC1CC2CC(C1)N2C(=O)Nc1ccc(Cl)c([C@@H]2CC[C@H]2n2ccnn2)c1 (relative stereo) [WO2025054369, Example 27] | < 1000 |
| CC1CC2CC(C1)N2C(=O)Nc1ccc(Cl)c([C@@H]2CC[C@@H]2n2ccnn2)c1 (relative stereo) [WO2025054369, Example 28] | < 1000 |
| CC1CC2CC(C1)N2C(=O)Nc1ccc(Cl)c([C@@H]2CC[C@H]2n2nccn2)c1 (relative stereo) [WO2025054369, Example 29] | 5500 |
| CC1CC2CC(C1)N2C(=O)Nc1ccc(Cl)c([C@@H]2CC[C@@H]2n2nccn2)c1 (relative stereo) [WO2025054369, Example 30] | < 1000 |
| CC1CC2CC(C1)N2C(=O)Nc1ccc(Cl)c([C@@H]2CC[C@H]2n2cnnc2)c1 (relative stereo) [WO2025054369, Example 31] | < 1000 |
| N#C[C@H]1CC[C@H]1c1cc(NC(=O)N2C3CCC2CC(C(F)(F)F)C3)ccc1Cl (relative stereo; form 1) [WO2025054369, Example 44] | < 1000 |
| N#C[C@H]1CC[C@H]1c1cc(NC(=O)N2C3CCC2CC(C(F)(F)F)C3)ccc1Cl (relative stereo; form 2) [WO2025054369, Example 45] | 5500 |
| Cc1nnc(C23CC(C)CC(C2)N3C(=O)Nc2ccc(Cl)c(C3CCC3)c2)o1 (configuration not stated) [WO2025054369, Example 1] | < 1000 |
| Cc1nnc(C23CC(C)CC(C2)N3C(=O)Nc2ccc(C(F)(F)F)c(C3CCC3)c2)o1 (configuration not stated) [WO2025054369, Example 2] | < 1000 |
| Cc1nnc(C23CC(C)CC(C2)N3C(=O)Nc2ccc(Cl)c([C@@H]3CC[C@@H]3C#N)c2)o1 (some centres not stated) [WO2025054369, Example 3] | < 1000 |
| Cc1nnc(C23CC(C)CC(C2)N3C(=O)Nc2ccc(Cl)c([C@H]3CC[C@H]3C#N)c2)o1 (some centres not stated) [WO2025054369, Example 4] | < 1000 |
| Cc1ccc(NC(=O)N2C3CC(C)CC2C3)cc1C(C)C#N (configuration not stated) [WO2025054369, Example 5] | < 1000 |
| Cc1ccc(NC(=O)N2C3CC(C)CC2C3)cc1C1CCC1C#N (configuration not stated) [WO2025054369, Example 6] | < 1000 |
| Cc1ccc(NC(=O)N2C3CC(C)CC2C3)cc1[C@@H]1CC[C@@H]1C#N (some centres not stated) [WO2025054369, Example 7] | < 1000 |
| Cc1ccc(NC(=O)N2C3CC(C)CC2C3)cc1[C@H]1CC[C@H]1C#N (some centres not stated) [WO2025054369, Example 8] | < 1000 |
| CC1CC2CC(C1)N2C(=O)Nc1ccc(Cl)c([C@@H]2CC[C@@H]2C#N)c1 (some centres not stated) [WO2025054369, Example 9] | < 1000 |
| CC1CC2CC(C1)N2C(=O)Nc1ccc(Cl)c([C@H]2CC[C@H]2C#N)c1 (some centres not stated) [WO2025054369, Example 10] | < 1000 |
| Cc1ccc(NC(=O)CC2CCC2)cc1C1CCC1 [WO2025054369, Example 11] | > 10000 |
| Cc1ccc(NC(=O)N2C3CCCC2C3)cc1C1CCC1 [WO2025054369, Example 12] | 5500 |
| Cc1ccc(NC(=O)N2C3CCCC2C3)cc1CC1CC1 [WO2025054369, Example 13] | 5500 |
| Cc1ccc(NC(=O)N2C3CCCC2C3)cc1C1CC(=O)N(C)C1 (configuration not stated) [WO2025054369, Example 14] | 5500 |
| Cc1ccc(NC(=O)N2C3CCCC2C3)cc1C1CN(C)C1 [WO2025054369, Example 15] | 5500 |
| Cc1nnc(C23CC(C)CC(C2)N3C(=O)Nc2ccc(Cl)c([C@@H]3C[C@@H]3C#N)c2)o1 (some centres not stated) [WO2025054369, Example 16] | 5500 |
| Cc1nnc(C23CC(C)CC(C2)N3C(=O)Nc2ccc(Cl)c([C@H]3C[C@H]3C#N)c2)o1 (some centres not stated) [WO2025054369, Example 17] | < 1000 |
| CC1CC2CC(C1)N2C(=O)Nc1ccc(Cl)c(C2CCC2)c1 (configuration not stated) [WO2025054369, Example 18] | < 1000 |
| CC1CC2CC(C1)N2C(=O)Nc1ccc(Cl)c(C2(F)CCC2)c1 (configuration not stated) [WO2025054369, Example 19] | < 1000 |

| SMILES | IC50 [nM] |
| --- | --- |
| CC1CC2CC(C1)N2C(=O)Nc1ccc(Cl)c(C23CC(C2)C3)c1 (configuration not stated) [WO2025054369, Example 20] | < 1000 |
| Cc1ccc(NC(=O)CC2CCC2)cc1C1CC1 [WO2025054369, Example 21] | > 10000 |
| Cc1ccc(NC(=O)N2C3CCCC2C3)cc1C1CC1 [WO2025054369, Example 22] | 5500 |
| Cc1ccc(NC(=O)N2C3CC(C)CC2C3)cc1C12CC(F)(C1)C2 (configuration not stated) [WO2025054369, Example 23] | < 1000 |
| Cc1ccc(NC(=O)N2C3CCCC2C3)cc1C12CC(C)(C1)C2 [WO2025054369, Example 24] | < 1000 |
| Cc1nnc(C23CC(C)CC(C2)N3C(=O)Nc2ccc(C(F)(F)F)c(C3CC(F)(F)C3)c2)o1 (configuration not stated) [WO2025054369, Example 25] | < 1000 |
| Cc1ccc(NC(=O)N2C3CCCC2C3)cc1C1CN(CC(F)(F)F)C1 [WO2025054369, Example 26] | 5500 |
| N#C[C@H]1CC[C@H]1c1cc(NC(=O)N2C3CC2CC(C(F)(F)F)C3)ccc1Cl (some centres not stated) [WO2025054369, Example 32] | < 1000 |
| N#C[C@@H]1CC[C@@H]1c1cc(NC(=O)N2C3CC2CC(C(F)(F)F)C3)ccc1Cl (some centres not stated) [WO2025054369, Example 33] | < 1000 |
| CC1CC2CC(C1)N2C(=O)Nc1cc(F)c(Cl)c([C@@H]2CC[C@@H]2C#N)c1 (some centres not stated) [WO2025054369, Example 34] | < 1000 |
| CC1CC2CC(C1)N2C(=O)Nc1cc(F)c(Cl)c([C@H]2CC[C@H]2C#N)c1 (some centres not stated) [WO2025054369, Example 35] | < 1000 |
| CC1CC2CC(C1)N2C(=O)Nc1ccc(Cl)c([C@H]2C[C@H](O)C2)c1 (some centres not stated) [WO2025054369, Example 36] | < 1000 |
| CC1CC2CC(C1)N2C(=O)Nc1ccc(Cl)c([C@H]2C[C@@H](O)C2)c1 (some centres not stated) [WO2025054369, Example 37] | < 1000 |
| CC1CC2CC(C1)N2C(=O)Nc1ccc(Cl)c(C2CC(C)(O)C2)c1 (configuration not stated) [WO2025054369, Example 38] | < 1000 |
| CC1CC2CC(C1)N2C(=O)Nc1ccc(Cl)c([C@@H]2CC[C@@H]2C(F)F)c1 (some centres not stated) [WO2025054369, Example 40] | < 1000 |
| CC1CC2CC(C1)N2C(=O)Nc1ccc(Cl)c([C@H]2CC[C@H]2C(F)F)c1 (some centres not stated) [WO2025054369, Example 41] | 5500 |
| O=C(Nc1ccc(Cl)c([C@H]2C[C@H](O)C2)c1)N1C2CC1CC(C(F)(F)F)C2 (some centres not stated) [WO2025054369, Example 42] | < 1000 |
| O=C(Nc1ccc(Cl)c([C@H]2C[C@@H](O)C2)c1)N1C2CC1CC(C(F)(F)F)C2 (some centres not stated) [WO2025054369, Example 43] | < 1000 |
| CC1CC2CC(C1)N2C(=O)Nc1ccc(Cl)c([C@@H]2CC[C@]2(C)O)c1 (some centres not stated) [WO2025054369, Example 46] | < 1000 |
| CC1CC2CC(C1)N2C(=O)Nc1ccc(Cl)c([C@H]2CC[C@@]2(C)O)c1 (some centres not stated) [WO2025054369, Example 47] | > 10000 |
| CC1CC2CC(C1)N2C(=O)Nc1ccc(Cl)c([C@H]2C[C@H](F)C2)c1 (some centres not stated) [WO2025054369, Example 48] | < 1000 |
| CC1CC2CC(C1)N2C(=O)Nc1ccc(Cl)c([C@H]2C[C@@H](F)C2)c1 (some centres not stated) [WO2025054369, Example 49] | < 1000 |
| CC1CC2CC(C1)N2C(=O)Nc1ccc(Cl)c([C@H]2CC[C@@H]2C(F)F)c1 (some centres not stated) [WO2025054369, Example 50] | < 1000 |
| CC1CC2CC(C1)N2C(=O)Nc1ccc(Cl)c([C@@H]2CC[C@H]2C(F)F)c1 (some centres not stated) [WO2025054369, Example 51] | < 1000 |
| N#C[C@H]1CC[C@H]1c1cc(NC(=O)N2C3CC2CC(C(F)(F)F)C3)ccc1C(F)(F)F (some centres not stated) [WO2025054369, Example 52] | 5500 |
| N#C[C@@H]1CC[C@@H]1c1cc(NC(=O)N2C3CC2CC(C(F)(F)F)C3)ccc1C(F)(F)F (some centres not stated) [WO2025054369, Example 53] | < 1000 |
